From patent US20140154312A1, “ORAL TARGETTED DRUG DELIVERY SYSTEM” (priority 2010, published 2014)
Entries after “also recorded” stand apart in the source; their conditions may differ.

How the values were obtained:
[1] = test system: colonic micro flora (caecal contents of the rat); assay: In vitro dissolution (drug release) of natural gum based 5-FU delivery systems in medium containing caecal contents of orally treated rats; format: physicochemical, Wister Albino rats; conditions: label = treatment given p.o. to the rats whose caecal contents (4% w/v) were used, 5-FU 8 mg/day, probiotics 1 g/day, pH 1.2 for 2 h, pH 6.8 for 3 h, then caecal medium
Method: (§1) To answer the questions as above, the inventors adopted an innovative experimental approach using a ‘living biological system’ comprising rats. All the experimental procedures were approved by the Institutional Animal Ethics Committee vide Approval Number 954/ac/06/CPCSEA/09/19. The experimental study was conducted on thirty Wister Albino rats. The animals were divided into 6 groups of five each.
(§2) The dosages were freshly prepared every day by suspending in milk. They were administered by oral gavage needle for first and subsequent exposure for a duration of five days each, at an interval of 20 days.
2 animals from each group were humanely sacrificed for the collection of caecal contents in sterile petri plates, which was immediately utilized for the dissolution studies. For dissolution studies, compression coated tablets of 5-FU with natural gums and microspheres of 5-FU with natural gums were used. The experiments were carried out in 250 ml beaker immersed in water maintained in the jars of dissolution test apparatus. Initial studies were carried out in 150 ml of 0.1N HCl (pH 1.2) for 2 h. After this, NaOH was added to the dissolution media and the pH was adjusted to 6.8. The volume was made up to 200 ml with phosphate buffer of pH 6.8. The study was continued for 3 hours after which, caecal contents (4% w/v) were added. […]

Albino Wister Rats = assay: Unwanted side-effects on oral administration in rats (hair, body weight, diarrhea, caecal contents, colon histopathology); format: in vivo; conditions: p.o., 5-FU 8 mg/day for 5 days, probiotics 1 g/day where given
Method: as §1, §2
To address whether the unwanted side-effects of colonic drugs e.g. diarrhea, hair loss etc. could also be reduced or eliminated using the ‘innovative approach’ of the present invention, trials were conducted in animals (rats) using 5-FU as a ‘model’.

- % drug released in 24 h on exposure to caecal contents of the rat: Compression coated tablets of 5-FU coated with natural gums ([1]; excipient-only control rats: 83): 52%
- % drug released in 24 h on exposure to caecal contents of the rat: 5-FU loaded microspheres comprising the drug and natural gums ([1]; excipient-only control rats: 92.20): 41.56%
Structure (SMILES): O=c1[nH]cc(F)c(=O)[nH]1 [5-FU powder, 5-Fluorouracil]
- body weight loss (Albino Wister Rats): loss
- diarrhea (Albino Wister Rats): bloody diarrhea
- histopathological examination of the colon (Albino Wister Rats): ulceration and loss of epithelial lining; also recorded: diffuse ulceration of the colonic mucosa with loss of lining epithelium
- loss of hair (Albino Wister Rats): loss of hair
- body weight loss (Albino Wister Rats; listed as 5-FU): loss of weight
- loss of hair (Albino Wister Rats; listed as 5-FU): loss of weight and hair
